The values below are quoted from earlier work in patent publication US12193458B2, “Sweetening composition and preparation method and use thereof” (HUNAN NUTRAMAX INC., priority 2019, dated 2025).

The conditions of one data set: component of Rubus suavissimus S. Lee.
Suavioside C1: the taste result is “bitter taste”. With Suavioside D2, the taste result is on record as “bitter taste”.

As for Suavioside I, the taste entry is “sweet taste”. Consider `CC1(C)C(O)CCC2(C)C3CCC4CC3(CCC12)CC4(O)COC1OC(CO)C(O)C(O)C1O` (stereo not shown) [Suavioside A], for which the taste result is “sweet taste”. As to Suavioside G, the taste entry is “sweet taste”. Take `C=C1C[C@@]23CC[C@H]4[C@@](C)(CCC[C@@]4(C)C(=O)O)[C@@H]2CC[C@]1(O[C@@H]1O[C@H](CO)[C@@H](O)[C@H](O)[C@H]1O)C3` [Steviolmonoside]: the taste result is “sweet taste”. Suavioside F: the taste entry is reported as “bitter taste”. `CC1(C)C(=O)CCC2(C)C3CCC4CC3(CCC12)CC4(O)COC1OC(CO)C(O)C(O)C1O` (stereo not shown) [Sugereoside]: the taste entry is recorded as “bitter taste”. For Suavioside B, the taste result was “sweet taste”. As to `C[C@@]12CCC[C@@](C)(C(=O)O[C@@H]3O[C@H](CO)[C@@H](O)[C@H](O)[C@H]3O)[C@H]1CC[C@@]13C[C@@H](CC[C@H]12)[C@@](O)(CO)C3` [Paniculoside IV], the taste entry is “tasteless”. Take `C[C@@H]1CC[C@]2(C(=O)O[C@@H]3O[C@H](CO)[C@@H](O)[C@H](O)[C@H]3O)CC[C@]3(C)C(=CC[C@@H]4[C@@]5(C)C[C@@H](O)[C@H](O)[C@@](C)(CO)[C@@H]5CC[C@]43C)[C@@H]2[C@]1(C)O` [Nigaichigoside F1]: the taste result is “bitter taste”. Regarding Suavioside J, the taste result is given as “sweet taste”. Regarding Suavioside D1, the taste entry is given as “tasteless”. For Suavioside H, the taste result is reported as “sweet taste”.

As to Suavioside E, the taste result was “tasteless”.

The conditions of a further data set: pH value of 3 to 12, heated, under light irradiation.
As for `C=C1C[C@@]23CC[C@H]4[C@@](C)(CCC[C@@]4(C)C(=O)O[C@@H]4O[C@H](CO)[C@@H](O)[C@H](O)[C@H]4O)[C@@H]2CC[C@]1(O[C@@H]1O[C@H](CO)[C@@H](O)[C@H](O)[C@H]1O)C3` [Rubusoside], the “decomposition when heated in a water solution” value is reported as “will not decompose significantly”.
